# In patent US5800838A, “Composition that inhibits or destroys at least one unicellular living organism containing fluorine F- and Lithium li+” (priority 1987, dated 1998):
# Read-outs that look alike come from different tables or passages of the source.
# What was measured:
# Gardenerella vaginalis = assay: MIC on hospital strains (Example 13); assay type: cell-based; conditions: read-out: MIC of benzalkonium chloride
# Protocol: (§1) The same trials as in example 12 were carried out on hospital strains of various microorganisms.
# Ducrey's bacillus = assay: MIC on hospital strains (Example 13); assay type: cell-based; conditions: read-out: MIC of benzalkonium chloride
# Protocol: as §1
# Trichomonas vaginalis = assay: MIC on hospital strains (Example 13); assay type: cell-based; conditions: read-out: MIC of benzalkonium chloride
# Protocol: as §1
# Escherichia coli = assay: MIC on hospital strains (Example 13); assay type: cell-based; conditions: read-out: MIC of benzalkonium chloride
# Protocol: as §1
# Aspergillus niger = assay: MIC on hospital strains (Example 13); assay type: cell-based; conditions: read-out: MIC of benzalkonium chloride
# Protocol: as §1
# Streptococcus faecalis = assay: MIC on hospital strains (Example 13); assay type: cell-based; conditions: Enterococcus faecalis, read-out: MIC of benzalkonium chloride
# Protocol: as §1
# Candida albicans = assay: MIC on hospital strains (Example 13); assay type: cell-based; conditions: read-out: MIC of benzalkonium chloride
# Protocol: as §1
# Neisseria gonorrhoea = assay: MIC on hospital strains (Example 13); assay type: cell-based; conditions: read-out: MIC of benzalkonium chloride
# Protocol: as §1
# Sarcina lutea [1] = assay: MIC on hospital strains (Example 13); assay type: cell-based; conditions: Micrococcus luteus, read-out: MIC of benzalkonium chloride
# Protocol: as §1
# Bacillus subtilis = assay: MIC on hospital strains (Example 13); assay type: cell-based; conditions: read-out: MIC of benzalkonium chloride
# Protocol: as §1
# Staphylococcus aureus [2] = assay: MIC on hospital strains (Example 13); assay type: cell-based; conditions: read-out: MIC of benzalkonium chloride
# Protocol: as §1
# Proteus vulgaris = assay: MIC on hospital strains of pyogenic microorganisms; assay type: cell-based; conditions: read-out: MIC of the primary active principle
# Description: (§2) The methodology employed is that described by Professor F. CATALAN, P. SEDNAOUI, A. MILOVANOVIC et al., Institut A. FOURNIER, PARIS.
# (§3) With the same methodology, the following results were observed on hospital strains of pyogenic microorganisms, namely […] streptococcus, Proteus vulgaris, Haemophilus influenzae: […]
# Haemophilus influenzae = assay: MIC on hospital strains of pyogenic microorganisms; assay type: cell-based; conditions: read-out: MIC of the primary active principle
# Description: as §2, §3
# [3] = tested on: β-Haemolytic streptococcus; assay: MIC on hospital strains of pyogenic microorganisms; assay type: cell-based; conditions: read-out: MIC of the primary active principle
# Description: as §2, §3
# Pseudomonas aeruginosa = assay: MIC on 200 wild-type strains of Pseudomonas aeruginosa (Examples 19 and 20); assay type: cell-based; conditions: Pseudomonas aeruginosa
# Protocol: With the same methodology as above, the MIC values of benzalkonium chloride alone, in the presence of the KATHON CG (registered trademark) preservative (1 mg/l), and then in the presence of KATHON CG (registered trademark) (1 mg/l) and lithium fluoride (1 mg/l), were determined. 200 wild-type strains of Pseudomonas aeruginosa were tested.
# The same trial as in Example 19 was performed, but with nonoxinol 9 as the primary active principle: 200 wild-type strains of Pseudomonas aeruginosa were also tested.
# [4] = tested on: Pseudomonas aeruginosa CNCM A 22; conditions: cited from earlier work
# [5] = tested on: Staphylococcus aureus Oxford strain CNCM 53 154; conditions: cited from earlier work
# Gardnerella vaginalis = assay: Contact methodology AFNOR standard I 72-151, strains surviving (second trial); assay type: cell-based; conditions: 15-min contact, NaF or LiF 1 mg/l where added
# Protocol: The second trial carried out was performed according to the contact methodology described in AFNOR standard I 72-151, by counting the strains surviving after a 15-min active substance/microbacterial solution contact followed by a filtration on a membrane (porosity 0.22 μm).
# In this trial, 26 wild-type strains of Gardnerella vaginalis were tested, originating from hospital sources. The starting solution contained 0.1% of benzalkonium chloride, and was then diluted to 10^-1, 10^-2, 10^-3 and 10^-4. The results are summarized in the table below, which gives the total number of strains surviving (out of the 26 tested) in terms of the dilution.
# Chlamydia trachomatis = assay: MIC on Chlamydia trachomatis strains; assay type: cell-based; conditions: listed test strain, read-out: MIC of benzalkonium chloride
# Protocol: The test was performed on 12 strains of Chlamydia trachomatis originating from hospital sources, in particular from cases of urethritis. All the trials were performed in duplicate, and the results compared with those for a listed control strain.
# The MIC corresponds to the concentration of benzalkonium chloride at and above which the average number of colonies in Petri dishes containing the active substance is less than one tenth of the average number of colonies in Petri dishes without active substance.
# Streptococcus = assay: MIC on wild-type hospital strains (Example 6); assay type: cell-based; conditions: 6 strains
# Protocol: (§4) The MIC of benzalkonium chloride, alone and in the presence of LiF at a concentration of 1 mg/l, was determined with respect to other wild-type strains originating from hospital sources namely Streptococcus (6 strains). Staphylococcus aureus (8 strains). Salmonella typhimurium (3 strains) and Sarcina lutea (1 strain).
# Salmonella typhimurium = assay: MIC on wild-type hospital strains (Example 6); assay type: cell-based; conditions: Salmonella enterica, 3 strains
# Protocol: as §4
# Sarcina lutea [6] = assay: MIC on wild-type hospital strains (Example 6); assay type: cell-based; conditions: Micrococcus luteus, 1 strain
# Protocol: as §4
# Staphylococcus aureus [7] = assay: MIC on wild-type hospital strains (Example 6); assay type: cell-based; conditions: in the presence of LiF at 1 mg/l, 8 strains
# Protocol: as §4
# [8] = in the presence of LiF at 1 ppm
# [9] = in the presence of LiF at 1 mg/l and of KATHON CG preservative at 0.4 mg/l
# [10] = in the presence of NaF at 1 mg/l
# [11] = in the presence of LiF at 1 mg/l
compound,measurement,setting,value
"CCCCCCCCCCCCCC[N+](C)(C)Cc1ccccc1.[Cl-] [benzalkonium chloride, myristyldimethylbenzylammonium chloride]",MIC,Gardenerella vaginalis; alone,50 µg/mL
same,MIC,Gardenerella vaginalis; [8],41 µg/mL
same,MIC,Ducrey's bacillus; alone,75 µg/mL
same,MIC,Ducrey's bacillus; [8],62 µg/mL
same,MIC,Trichomonas vaginalis; alone,1.3 µg/mL
same,MIC,Trichomonas vaginalis; [8],0.9 µg/mL
same,MIC,Escherichia coli; alone,8 µg/mL
same,MIC,Escherichia coli; [8],6.5 µg/mL
same,MIC,Aspergillus niger; alone,85 µg/mL
same,MIC,Aspergillus niger; [8],80 µg/mL
same,MIC,Streptococcus faecalis; alone,15 µg/mL
same,MIC,Streptococcus faecalis; [8],9 µg/mL
same,MIC,Candida albicans; alone,50 µg/mL
same,MIC,Candida albicans; [8],35 µg/mL
same,MIC,Neisseria gonorrhoea; alone,1.15 µg/mL
same,MIC,Neisseria gonorrhoea; [8],0.6 µg/mL
same,MIC,Sarcina lutea [1]; alone,11 µg/mL
same,MIC,Sarcina lutea [1]; [8],7.5 µg/mL
same,MIC,Bacillus subtilis; alone,8 µg/mL
same,MIC,Bacillus subtilis; [8],5.4 µg/mL
same,MIC,Staphylococcus aureus [2]; alone,1.56 µg/mL
same,MIC,Staphylococcus aureus [2]; [8],1 µg/mL
same,MIC,Proteus vulgaris; alone,25 µg/mL
same,MIC,Proteus vulgaris; [9],18.5 µg/mL
same,MIC,Haemophilus influenzae; alone,200 µg/mL
same,MIC,Haemophilus influenzae; [9],150 µg/mL
same,MIC,[3]; alone,50 µg/mL
same,MIC,[3]; [9],25 µg/mL
same,MIC,"Pseudomonas aeruginosa; + KATHON CG (1 mg/l) + LiF (1 mg/l), strain Tic R βLac^+",16 µg/mL
same,MIC,"Pseudomonas aeruginosa; + KATHON CG (1 mg/l) + LiF (1 mg/l), strain Tic R βLac^+ OXA",16 µg/mL
same,MIC,"Pseudomonas aeruginosa; + KATHON CG (1 mg/l) + LiF (1 mg/l), strain Tic R βLac^+ PSE",32 µg/mL
same,MIC,"Pseudomonas aeruginosa; + KATHON CG (1 mg/l) + LiF (1 mg/l), strain Tic R βLac^+ TEM",32 µg/mL
same,MIC,"Pseudomonas aeruginosa; + KATHON CG (1 mg/l) + LiF (1 mg/l), strain Tic R βLac^+ cephalosporinase",32 µg/mL
same,MIC,"Pseudomonas aeruginosa; + KATHON CG (1 mg/l) + LiF (1 mg/l), strain Tic S βLac^-",16 µg/mL
same,MIC,"Pseudomonas aeruginosa; + KATHON CG (1 mg/l), strain Tic R βLac^+ OXA, read-out: MIC",32 µg/mL
same,MIC,"Pseudomonas aeruginosa; + KATHON CG (1 mg/l), strain Tic R βLac^+ PSE, read-out: MIC",64 µg/mL
same,MIC,"Pseudomonas aeruginosa; + KATHON CG (1 mg/l), strain Tic R βLac^+ TEM, read-out: MIC",32 µg/mL
same,MIC,"Pseudomonas aeruginosa; + KATHON CG (1 mg/l), strain Tic R βLac^+ cephalosporinase, read-out: MIC",128 µg/mL
same,MIC,"Pseudomonas aeruginosa; + KATHON CG (1 mg/l), strain Tic R βLac^+, read-out: MIC",32 µg/mL
same,MIC,"Pseudomonas aeruginosa; + KATHON CG (1 mg/l), strain Tic S βLac^-, read-out: MIC",16 µg/mL
same,MIC,"Pseudomonas aeruginosa; alone, strain Tic R βLac^+",64 µg/mL
same,MIC,"Pseudomonas aeruginosa; alone, strain Tic R βLac^+ OXA, read-out: MIC",64 µg/mL
same,MIC,"Pseudomonas aeruginosa; alone, strain Tic R βLac^+ PSE, read-out: MIC",64 µg/mL
same,MIC,"Pseudomonas aeruginosa; alone, strain Tic R βLac^+ TEM, read-out: MIC",32 µg/mL
same,MIC,"Pseudomonas aeruginosa; alone, strain Tic R βLac^+ cephalosporinase, read-out: MIC",128 µg/mL
same,MIC,"Pseudomonas aeruginosa; alone, strain Tic S βLac^-, read-out: MIC",32 µg/mL
same,MIC of benzalkonium chloride,[4]; alone,31.25 µg/mL
same,MIC of benzalkonium chloride,[4]; [10],18 µg/mL
same,MIC of benzalkonium chloride,[5]; alone,1.56 µg/mL
same,MIC of benzalkonium chloride,[5]; [10],1.1 µg/mL
same,total number of strains surviving (out of the 26 tested),Gardnerella vaginalis; 0.1% solution diluted 10^-1,0
same,total number of strains surviving (out of the 26 tested),Gardnerella vaginalis; 0.1% solution diluted 10^-2,18
same,total number of strains surviving (out of the 26 tested),Gardnerella vaginalis; 0.1% solution diluted 10^-3,22
same,total number of strains surviving (out of the 26 tested),Gardnerella vaginalis; 0.1% solution diluted 10^-4,26
same,MIC,Chlamydia trachomatis; 1 mg/ml added (lithium fluoride),13 µg/mL
same,MIC,Chlamydia trachomatis; alone,18 µg/mL
same,MIC,Streptococcus; alone,18 to 20 µg/mL
same,MIC,Streptococcus; [11],10 µg/mL
same,MIC,Salmonella typhimurium; alone,17 µg/mL
same,MIC,Salmonella typhimurium; [11],12 µg/mL
same,MIC,Sarcina lutea [6]; alone,15 µg/mL
same,MIC,Sarcina lutea [6]; [11],11 µg/mL
same,MIC,Staphylococcus aureus [7],0.3 µg/mL
